Earlier results on three molecules are cited in patent publication US5514673A, “Pharmaceutical composition containing lipophilic drugs” (priority 1993, dated 1996).

The conditions of series [1]: physiological saline solution.
The conditions of series [2]: for first pass effect: oral.
The conditions of series [3]: animal tests.
The conditions of series [4]: sublingual and buccal, sex hormone compositions.
For series [5] the following is noted: in vivo.

Consider `C[C@]12CC[C@@H]3c4ccc(O)cc4CC[C@H]3[C@@H]1CC[C@@H]2O` [17β-estradiol], for which the “suitability of intranasal administration” value in series [1] was “unsuitable”. Moreover, in series [2], the oral effectiveness result is given as “very limited oral effectiveness” and the first pass effect result is reported as “high first pass effect”.

Take `CC(=O)[C@H]1CC[C@H]2[C@@H]3CCC4=CC(=O)CC[C@]4(C)[C@H]3CC[C@]12C` [Progesterone, progesterone]: in series [2], the oral effectiveness result is “very limited oral effectiveness” and the first pass effect result is “high first pass effect”.

Regarding dimethyl-β-cyclodextrin, the “influence on drug uptake” value in series [3] is recorded as “adversely influence the drug uptake”. Also, the “effect on the absorption” value in series [4] is “virtually no effect on the absorption”. Also, the “nephrotoxicity and haemolytic activity” value in series [5] was “nephrotoxicity and haemolytic activity”.
